Laboratory results reported in US8211929B2, “Pyrimidine derivatives as kinase modulators and method of use” (Exelixis, Inc., priority 2004, dated 2012).

Key:
IGF 3P = molecular target: T1, IGF 3P (Homo sapiens, UniProt P08069); test: IGF1R kinase assay (LCCA), IGF 3P; assay type: biochemical; conditions: IGF1R kinase LCCA assay
T1 construct: human IGF1R kinase domain residues M954-C1367; made in house; host or cells: baculovirus expression (insect cells)
Procedure, shortened: (§1)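 Read-out is percent ATP remaining, detected by luciferase-luciferin luminescence after a 2 h ambient reaction. Reaction contained 4 nM IGF1R kinase domain (residues M954-C1367, baculovirus-made), 3 μM ATP (near KM), 4 μM poly EY, pH 7.5 with Mg2+/Mn2+. Ten inhibitor concentrations; IC50 by Hill-type curve fit.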

[1] = molecular target: T2, (Homo sapiens, UniProt P08069); test: IGF1R kinase assay (LCCA), IGF 0P; assay type: biochemical; conditions: IGF1R kinase LCCA assay
T2 construct: human IGF1R kinase domain residues M954-C1367; made in house; host or cells: baculovirus expression (insect cells)
Procedure, shortened: as §1

T1 sequence (P08069 954-1367): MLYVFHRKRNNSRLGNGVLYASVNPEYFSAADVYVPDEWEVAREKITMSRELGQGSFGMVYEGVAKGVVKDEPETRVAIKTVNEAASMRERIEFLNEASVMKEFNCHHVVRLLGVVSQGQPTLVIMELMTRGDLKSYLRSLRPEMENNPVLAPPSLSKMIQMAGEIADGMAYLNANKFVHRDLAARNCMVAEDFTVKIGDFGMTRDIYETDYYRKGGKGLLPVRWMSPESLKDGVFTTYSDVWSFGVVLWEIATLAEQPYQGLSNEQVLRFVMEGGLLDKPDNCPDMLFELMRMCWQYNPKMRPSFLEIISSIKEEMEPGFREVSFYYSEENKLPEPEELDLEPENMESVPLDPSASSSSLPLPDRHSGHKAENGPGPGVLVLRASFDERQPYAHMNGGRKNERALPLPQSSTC
T2 sequence (P08069 954-1367): as above

| SMILES | IC50 (IGF 3P) | IC50 [1] | IC50 (IGF 3P; IGF 3P) | IC50 ([1]; IGF 0P) |
| --- | --- | --- | --- | --- |
| CC(C)c1cc(Nc2cc(N3CCN(C)CC3)nc(NCc3cc(-c4ccccc4)no3)n2)n[nH]1 [Example 497] | < 0.05 µM | 0.05 to 0.5 µM | – | – |
| Cc1cc(Nc2cc(C3CC3)[nH]n2)nc(NCc2cc(-c3ccccn3)no2)n1 [Example 498] | 0.05 to 0.5 µM | 0.05 to 0.5 µM | – | – |
| c1ccc(-c2cc(CNc3nc(Nc4cc(C5CC5)[nH]n4)cc(N4CCNCC4)n3)on2)cc1 [Example 499] | < 0.05 µM | 0.05 to 0.5 µM | – | – |
| Cc1cc(Nc2cc(C3CC3)[nH]n2)nc(NCc2cc(-c3ccc(F)cc3)no2)n1 [Example 500] | < 0.05 µM | 0.05 to 0.5 µM | – | – |
| c1ccc(-c2cc(CNc3nc(Nc4cc(C5CC5)[nH]n4)cc(OCCN4CCOCC4)n3)on2)cc1 [Example 501] | < 0.05 µM | 0.05 to 0.5 µM | – | – |
| CN1CCN(CCNc2cc(Nc3cc(C4CC4)[nH]n3)nc(NCc3cc(-c4ccccc4)no3)n2)CC1 [Example 509] | < 0.05 µM | 0.05 to 0.5 µM | – | – |
| O=C(c1cc(Nc2cc(C3CC3)[nH]n2)nc(NCc2cc(-c3ccccc3)no2)n1)N1CCOCC1 [Example 512] | 0.05 to 0.5 µM | 0.05 to 0.5 µM | – | – |
| c1ccc(-c2cc(CNc3nc(NCCN4CCOCC4)cc(Nc4cc(C5CC5)[nH]n4)n3)on2)cc1 [Example 513] | < 0.05 µM | 0.05 to 0.5 µM | – | – |
| c1ccc(-c2cc(CNc3nc(Nc4cc(C5CC5)n[nH]4)cc(OCCN4CCCC4)n3)on2)cc1 [Example 514] | – | – | < 0.05 µM | 0.05 to 0.5 µM |
| CN1CCC(Oc2cc(Nc3cc(C4CC4)[nH]n3)nc(NCc3cc(-c4ccccc4)no3)n2)C1 (centres unmarked) [Example 515] | < 0.05 µM | 0.05 to 0.5 µM | – | – |
| c1ccc(-c2cc(CNc3nc(NCCN4CCCCC4)cc(Nc4cc(C5CC5)[nH]n4)n3)on2)cc1 [Example 516] | < 0.05 µM | 0.05 to 0.5 µM | – | – |
| CC(C)c1cc(Nc2cc(OCCN(C)C)nc(NCc3cc(-c4ccccc4)no3)n2)n[nH]1 [Example 518] | < 0.05 µM | 0.05 to 0.5 µM | – | – |
| O=C(NCCN1CCCC1)c1cc(Nc2cc(C3CC3)[nH]n2)nc(NCc2cc(-c3ccccc3)no2)n1 [Example 521] | < 0.05 µM | 0.05 to 0.5 µM | – | – |
| CN1CCN(C(=O)c2cc(Nc3cc(C4CC4)[nH]n3)nc(NCc3cc(-c4ccccc4)no3)n2)CC1 [Example 522] | < 0.05 µM | 0.05 to 0.5 µM | – | – |
| Cc1cc(Nc2cc(C3CC3)[nH]n2)nc(NCc2cc(-c3ccccc3Br)no2)n1 [Example 525] | 0.05 to 0.5 µM | 0.05 to 0.5 µM | – | – |
| Cc1cc(Nc2cc(C(C)C)[nH]n2)nc(NCc2cc(C(C)C)no2)n1 [Example 526] | < 0.05 µM | 0.5 to 5 µM | – | – |
| CN1CCN(CCNC(=O)c2cc(Nc3cc(C4CC4)[nH]n3)nc(NCc3cc(-c4ccccc4)no3)n2)CC1 [Example 527] | 0.05 to 0.5 µM | 0.05 to 0.5 µM | – | – |
| Cc1cc(Nc2cc(C)nc(NCc3cc(-c4ccccc4)no3)n2)[nH]n1 [Example 528] | 0.05 to 0.5 µM | 0.05 to 0.5 µM | – | – |
| CCN(CC)CCCNC(=O)c1cc(Nc2cc(C3CC3)[nH]n2)nc(NCc2cc(-c3ccccc3)no2)n1 [Example 529] | 0.05 to 0.5 µM | 0.05 to 0.5 µM | – | – |
| CCN(CC)CCNC(=O)c1cc(Nc2cc(C3CC3)[nH]n2)nc(NCc2cc(-c3ccccc3)no2)n1 [Example 530] | < 0.05 µM | 0.05 to 0.5 µM | – | – |
| O=C(NCCN1CCCCC1)c1cc(Nc2cc(C3CC3)[nH]n2)nc(NCc2cc(-c3ccccc3)no2)n1 [Example 531] | < 0.05 µM | 0.05 to 0.5 µM | – | – |
| O=C(NCCN1CCOCC1)c1cc(Nc2cc(C3CC3)[nH]n2)nc(NCc2cc(-c3ccccc3)no2)n1 [Example 533] | 0.05 to 0.5 µM | 0.05 to 0.5 µM | – | – |
| Brc1cnc(Nc2ccc(N3CCOCC3)cc2)nc1Nc1ccc2c(c1)CNCC2 [Example 534] | < 0.05 µM | 0.5 to 5 µM | – | – |
| Cc1cc(Nc2cc(C(C)C)[nH]n2)nc(NCc2cc(-c3cccc(Cl)c3)no2)n1 [Example 535] | 0.05 to 0.5 µM | 0.05 to 0.5 µM | – | – |
| Cc1cc(Nc2cc(C3CC3)[nH]n2)nc(NCc2cnc[nH]2)n1 [Example 536] | 0.5 to 5 µM | 0.5 to 5 µM | – | – |
